{"source": "patent US7485651B2", "about": "“Compounds with activity on muscarinic receptors” (Acadia Pharmaceuticals, Inc., priority 1998, dated 2009)", "key": {"[1]": {"biological_target": "T1, α-adrenergic receptor subtype 1A (Homo sapiens, UniProt P35348)", "T1 sequence (P35348 1-466)": "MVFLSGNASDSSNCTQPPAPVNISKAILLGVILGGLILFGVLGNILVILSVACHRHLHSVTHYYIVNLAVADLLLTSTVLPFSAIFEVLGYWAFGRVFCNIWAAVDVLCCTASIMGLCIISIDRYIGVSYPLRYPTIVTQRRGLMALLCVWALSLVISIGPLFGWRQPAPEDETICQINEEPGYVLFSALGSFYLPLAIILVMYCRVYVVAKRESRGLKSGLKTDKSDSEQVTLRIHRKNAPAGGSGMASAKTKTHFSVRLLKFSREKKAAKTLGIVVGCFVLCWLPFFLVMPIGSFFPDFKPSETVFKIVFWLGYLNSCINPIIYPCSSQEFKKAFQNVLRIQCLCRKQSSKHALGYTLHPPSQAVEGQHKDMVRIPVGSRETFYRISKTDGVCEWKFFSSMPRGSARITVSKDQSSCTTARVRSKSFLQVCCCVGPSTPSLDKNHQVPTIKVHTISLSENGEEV", "assay": "Test against other receptors: α-adrenergic 1A", "assay_type": "cell-based"}, "[2]": {"biological_target": "T2, α-adrenergic receptor subtype 1D (Homo sapiens, UniProt P25100)", "T2 sequence (P25100 1-572)": "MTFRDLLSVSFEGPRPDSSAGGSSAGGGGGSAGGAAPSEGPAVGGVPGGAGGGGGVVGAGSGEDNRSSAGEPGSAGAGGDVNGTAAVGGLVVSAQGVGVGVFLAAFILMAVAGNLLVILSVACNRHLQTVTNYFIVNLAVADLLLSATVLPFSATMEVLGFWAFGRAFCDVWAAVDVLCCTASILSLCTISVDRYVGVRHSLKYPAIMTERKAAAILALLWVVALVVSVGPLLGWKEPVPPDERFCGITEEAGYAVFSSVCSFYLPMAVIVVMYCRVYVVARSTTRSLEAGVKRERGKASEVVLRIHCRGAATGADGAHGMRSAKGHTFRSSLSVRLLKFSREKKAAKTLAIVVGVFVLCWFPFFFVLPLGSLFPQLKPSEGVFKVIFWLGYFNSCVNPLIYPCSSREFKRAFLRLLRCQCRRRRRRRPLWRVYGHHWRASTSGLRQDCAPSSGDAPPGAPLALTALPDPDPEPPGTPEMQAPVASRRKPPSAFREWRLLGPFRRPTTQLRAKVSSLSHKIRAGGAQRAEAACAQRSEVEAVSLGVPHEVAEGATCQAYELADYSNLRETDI", "assay": "Test against other receptors: α-adrenergic 1D", "assay_type": "cell-based"}, "[3]": {"biological_target": "histamine H1 (Homo sapiens, UniProt P35367)", "sequence (P35367 whole entry)": "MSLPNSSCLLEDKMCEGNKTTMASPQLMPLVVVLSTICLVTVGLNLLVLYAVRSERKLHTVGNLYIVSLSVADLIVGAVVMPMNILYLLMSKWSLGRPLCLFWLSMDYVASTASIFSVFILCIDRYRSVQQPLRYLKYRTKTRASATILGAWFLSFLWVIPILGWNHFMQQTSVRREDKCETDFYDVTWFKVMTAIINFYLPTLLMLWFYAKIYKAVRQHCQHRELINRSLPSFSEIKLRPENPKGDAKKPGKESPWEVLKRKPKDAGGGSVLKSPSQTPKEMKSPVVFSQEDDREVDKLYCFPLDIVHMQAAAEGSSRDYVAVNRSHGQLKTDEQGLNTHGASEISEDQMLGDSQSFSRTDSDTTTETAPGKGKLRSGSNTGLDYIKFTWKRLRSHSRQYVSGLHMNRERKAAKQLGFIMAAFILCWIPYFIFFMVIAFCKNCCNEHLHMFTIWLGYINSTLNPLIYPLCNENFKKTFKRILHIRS", "assay": "Test against other receptors: histamine H1", "assay_type": "cell-based"}, "[4]": {"biological_target": "T3, α-adrenergic receptor subtype 1B (Homo sapiens, UniProt P35368)", "T3 sequence (P35368 1-520)": "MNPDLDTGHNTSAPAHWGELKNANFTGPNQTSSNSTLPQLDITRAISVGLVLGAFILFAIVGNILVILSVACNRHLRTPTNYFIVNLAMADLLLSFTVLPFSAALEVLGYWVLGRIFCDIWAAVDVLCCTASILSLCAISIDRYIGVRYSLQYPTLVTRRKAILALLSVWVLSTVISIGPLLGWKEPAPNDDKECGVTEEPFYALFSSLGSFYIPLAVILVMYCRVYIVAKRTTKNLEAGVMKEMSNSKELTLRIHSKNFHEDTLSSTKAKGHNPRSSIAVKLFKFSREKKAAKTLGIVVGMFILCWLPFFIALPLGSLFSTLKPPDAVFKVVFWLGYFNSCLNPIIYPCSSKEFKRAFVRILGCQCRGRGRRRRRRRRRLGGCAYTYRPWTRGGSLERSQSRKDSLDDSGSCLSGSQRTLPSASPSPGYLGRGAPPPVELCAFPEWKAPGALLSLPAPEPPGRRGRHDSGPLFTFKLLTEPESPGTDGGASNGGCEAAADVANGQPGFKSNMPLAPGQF", "assay": "Test against other receptors: α-adrenergic 1B", "assay_type": "cell-based"}, "[5]": {"biological_target": "T4, α-adrenergic receptor subtype 2A (Homo sapiens, UniProt P08913)", "T4 sequence (P08913 1-465)": "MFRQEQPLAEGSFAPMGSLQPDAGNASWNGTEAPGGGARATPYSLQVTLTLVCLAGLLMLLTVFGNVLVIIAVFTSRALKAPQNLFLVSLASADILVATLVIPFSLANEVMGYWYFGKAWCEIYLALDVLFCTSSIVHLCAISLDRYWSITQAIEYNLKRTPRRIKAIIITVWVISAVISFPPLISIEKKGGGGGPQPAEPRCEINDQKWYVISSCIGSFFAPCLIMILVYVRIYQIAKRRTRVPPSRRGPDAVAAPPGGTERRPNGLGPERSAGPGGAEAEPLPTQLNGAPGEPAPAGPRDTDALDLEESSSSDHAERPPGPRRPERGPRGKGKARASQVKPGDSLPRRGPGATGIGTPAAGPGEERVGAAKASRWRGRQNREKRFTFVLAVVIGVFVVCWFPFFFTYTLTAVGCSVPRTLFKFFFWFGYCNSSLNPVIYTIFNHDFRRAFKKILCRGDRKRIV", "assay": "Test against other receptors: α-adrenergic 2A", "assay_type": "cell-based"}, "[6]": {"biological_target": "serotonin 5-HT2A (Homo sapiens, UniProt P28223)", "sequence (P28223 whole entry)": "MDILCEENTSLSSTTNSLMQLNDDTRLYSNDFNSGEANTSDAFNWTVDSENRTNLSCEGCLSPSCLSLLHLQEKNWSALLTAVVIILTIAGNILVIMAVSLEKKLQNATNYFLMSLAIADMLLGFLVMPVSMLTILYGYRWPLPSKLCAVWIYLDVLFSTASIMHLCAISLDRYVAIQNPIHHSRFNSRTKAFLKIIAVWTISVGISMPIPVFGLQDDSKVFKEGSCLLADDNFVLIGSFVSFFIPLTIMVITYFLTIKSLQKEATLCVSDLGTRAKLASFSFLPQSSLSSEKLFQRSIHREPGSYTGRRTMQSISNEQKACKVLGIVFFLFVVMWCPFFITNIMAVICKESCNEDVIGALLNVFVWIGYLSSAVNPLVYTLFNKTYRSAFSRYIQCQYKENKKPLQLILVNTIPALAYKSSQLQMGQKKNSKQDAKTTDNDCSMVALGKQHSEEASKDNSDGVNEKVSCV", "assay": "Test against other receptors: serotonin 5-HT2A"}, "[7]": {"biological_target": "T5, α-adrenergic receptor subtype 2C (Homo sapiens, UniProt P18825)", "T5 sequence (P18825 1-462)": "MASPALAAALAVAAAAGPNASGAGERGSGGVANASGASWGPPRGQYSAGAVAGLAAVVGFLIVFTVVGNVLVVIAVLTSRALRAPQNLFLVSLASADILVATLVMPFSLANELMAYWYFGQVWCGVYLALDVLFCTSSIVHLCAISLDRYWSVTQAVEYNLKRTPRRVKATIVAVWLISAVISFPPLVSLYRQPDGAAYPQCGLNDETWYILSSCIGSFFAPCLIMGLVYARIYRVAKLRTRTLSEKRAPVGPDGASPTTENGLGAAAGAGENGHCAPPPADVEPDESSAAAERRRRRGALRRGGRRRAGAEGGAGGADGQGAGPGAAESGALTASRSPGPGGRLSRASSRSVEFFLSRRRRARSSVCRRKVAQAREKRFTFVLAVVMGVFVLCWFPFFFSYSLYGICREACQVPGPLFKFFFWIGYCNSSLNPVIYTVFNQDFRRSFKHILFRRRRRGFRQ", "assay": "Test against other receptors: α-adrenergic 2C", "assay_type": "cell-based"}}}
{"smiles": "CCCCC1CCN(CCCC(=O)c2ccccc2C)CC1", "note": "[Compound A, 4-n-Butyl-1-[4-(2-methylphenyl)-4-oxo-1-butyl]piperidine]", "values": [{"measurement": "agonist activity", "setting": "[1]", "result": "no significant activity"}, {"measurement": "agonist activity", "setting": "[2]", "result": "no significant activity"}, {"measurement": "agonist activity", "setting": "[3]", "result": "no significant activity"}, {"measurement": "agonist activity", "setting": "[4]", "result": "no significant activity"}, {"measurement": "agonist activity", "setting": "[5]", "result": "no significant activity"}, {"measurement": "inhibition of receptor responses (antagonist experiments)", "setting": "[5]", "result": "did not inhibit"}, {"measurement": "agonist activity", "setting": "[6]", "result": "no significant activity"}, {"measurement": "inhibition of receptor responses (antagonist experiments)", "setting": "[6]", "result": "did not inhibit"}, {"measurement": "agonist activity", "setting": "[7]", "result": "no significant activity"}, {"measurement": "inhibition of receptor responses (antagonist experiments)", "setting": "[7]", "result": "did not inhibit"}]}
